Results on 46 compounds are retold here after the Kinase Knowledgebase extract (Sharma et al. 2016).

One may read the IC50 as the concentration at which inhibition is half-maximal.

Sequence of PIK3CA (human) (P42336 whole entry, looked up): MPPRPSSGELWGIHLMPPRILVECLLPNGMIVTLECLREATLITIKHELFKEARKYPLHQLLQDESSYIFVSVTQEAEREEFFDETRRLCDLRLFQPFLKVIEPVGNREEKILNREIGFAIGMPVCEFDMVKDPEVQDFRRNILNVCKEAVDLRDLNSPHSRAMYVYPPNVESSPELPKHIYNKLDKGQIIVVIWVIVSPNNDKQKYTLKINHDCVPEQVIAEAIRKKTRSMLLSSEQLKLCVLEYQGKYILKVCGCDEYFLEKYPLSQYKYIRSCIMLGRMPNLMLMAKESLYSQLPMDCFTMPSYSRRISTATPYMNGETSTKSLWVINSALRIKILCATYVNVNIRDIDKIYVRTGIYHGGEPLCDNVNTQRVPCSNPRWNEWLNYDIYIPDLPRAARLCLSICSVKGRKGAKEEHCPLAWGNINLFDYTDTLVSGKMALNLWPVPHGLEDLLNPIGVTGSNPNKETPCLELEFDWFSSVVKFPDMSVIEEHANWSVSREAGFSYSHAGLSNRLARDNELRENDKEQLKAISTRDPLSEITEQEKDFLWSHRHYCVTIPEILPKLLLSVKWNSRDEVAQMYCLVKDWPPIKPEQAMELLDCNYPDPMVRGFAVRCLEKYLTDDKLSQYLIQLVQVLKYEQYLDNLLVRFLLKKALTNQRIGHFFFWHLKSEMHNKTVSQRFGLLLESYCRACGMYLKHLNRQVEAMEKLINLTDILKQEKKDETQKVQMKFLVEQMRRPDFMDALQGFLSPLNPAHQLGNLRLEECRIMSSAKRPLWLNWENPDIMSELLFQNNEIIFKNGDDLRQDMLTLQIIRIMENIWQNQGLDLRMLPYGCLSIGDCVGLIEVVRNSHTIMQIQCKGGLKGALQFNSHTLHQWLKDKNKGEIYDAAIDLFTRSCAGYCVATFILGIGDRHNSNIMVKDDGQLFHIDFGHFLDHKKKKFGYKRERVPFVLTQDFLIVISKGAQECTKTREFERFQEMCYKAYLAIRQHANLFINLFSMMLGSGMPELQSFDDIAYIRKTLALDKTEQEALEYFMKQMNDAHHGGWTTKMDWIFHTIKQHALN

The target in one assay is PIK3CD (Human) (UniProt O00329). The assay is described as follows: Inhibition of PIK3CD Kinase Activity.
Sequence of PIK3CD (Human) (O00329 whole entry, looked up): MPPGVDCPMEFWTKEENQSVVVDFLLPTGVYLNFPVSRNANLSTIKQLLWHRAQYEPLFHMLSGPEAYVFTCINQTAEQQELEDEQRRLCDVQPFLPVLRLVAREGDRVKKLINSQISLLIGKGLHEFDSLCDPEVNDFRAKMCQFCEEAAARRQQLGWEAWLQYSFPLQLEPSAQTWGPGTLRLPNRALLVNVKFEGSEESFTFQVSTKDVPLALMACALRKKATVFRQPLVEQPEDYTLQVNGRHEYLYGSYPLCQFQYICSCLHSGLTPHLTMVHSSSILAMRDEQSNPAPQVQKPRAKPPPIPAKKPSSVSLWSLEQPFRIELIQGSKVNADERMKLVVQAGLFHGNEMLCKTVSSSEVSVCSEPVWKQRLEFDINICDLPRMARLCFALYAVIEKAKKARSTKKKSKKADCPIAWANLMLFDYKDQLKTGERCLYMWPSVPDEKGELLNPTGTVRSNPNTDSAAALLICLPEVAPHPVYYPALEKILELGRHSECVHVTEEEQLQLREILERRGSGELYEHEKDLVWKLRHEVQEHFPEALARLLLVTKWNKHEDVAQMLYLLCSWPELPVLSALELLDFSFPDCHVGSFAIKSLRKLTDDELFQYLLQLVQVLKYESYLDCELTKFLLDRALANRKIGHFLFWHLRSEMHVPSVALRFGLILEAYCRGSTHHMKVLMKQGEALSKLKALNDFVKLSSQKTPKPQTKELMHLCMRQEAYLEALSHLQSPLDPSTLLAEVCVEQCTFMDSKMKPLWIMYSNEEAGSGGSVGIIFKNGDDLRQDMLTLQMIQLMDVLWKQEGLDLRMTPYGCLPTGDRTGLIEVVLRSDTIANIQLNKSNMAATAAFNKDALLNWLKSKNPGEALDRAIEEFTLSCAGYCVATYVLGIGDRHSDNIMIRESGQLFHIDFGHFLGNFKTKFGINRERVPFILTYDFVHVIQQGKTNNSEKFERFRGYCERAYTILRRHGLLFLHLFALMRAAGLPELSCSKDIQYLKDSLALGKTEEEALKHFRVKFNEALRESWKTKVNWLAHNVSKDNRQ
Turning to `CC(=O)Nc1nc2ccc(-c3cccc(S(C)(=O)=O)n3)cc2s1`, the IC50 was below 1000 nM.

In the case of `CCC(=O)Nc1nc2ccc(-c3cccc(S(C)(=O)=O)c3)cc2s1`, the half-maximal inhibitory concentration (IC50) is below 1000 nM.

Regarding `CS(=O)(=O)c1cccc(-c2ccc3nc(NC(=O)NCC(=O)N4CCOCC4)sc3c2)c1`, the IC50 was below 1000 nM.

Compound `CC(=O)Nc1nc2ccc(-c3cccc(S(=O)(=O)N(CCO)CCO)c3)cc2s1` showed an IC50 below 1000 nM.

As for `CC(=O)Nc1nc2ccc(-c3cncc(S(N)(=O)=O)c3)cc2s1`, the IC50 is below 1000 nM.

`COc1cc(-c2ccc3nc(NC(=O)NCC(=O)N4CCOCC4)sc3c2)ccc1O` displayed an IC50 below 1000 nM.

Take `CC(=O)Nc1nc2ccc(-c3cccc(S(N)(=O)=O)c3)cc2s1`: the IC50 is below 1000 nM.

Regarding `CC(=O)Nc1nc2ccc(-c3cccc(NS(C)(=O)=O)c3)cc2s1`, the IC50 is below 1000 nM.

Compound `CC(=O)Nc1nc2ccc(-c3cccc(S(=O)(=O)N4CCCC(O)C4)c3)cc2s1` (stereo unspecified) showed an IC50 below 1000 nM.

The compound `CC(=O)Nc1nc2ccc(-c3cccc(S(=O)(=O)NC4CCCNC4)c3)cc2s1` (stereo unspecified) registered an IC50 below 1000 nM.

Consider `CS(=O)(=O)c1cccc(-c2ccc3nc(NC(=O)C(=O)N4CCCC4)sc3c2)c1`, for which the IC50 was below 1000 nM.

`CCNS(=O)(=O)c1cccc(-c2ccc3nc(NC(C)=O)sc3c2)c1` gave an IC50 below 1000 nM.

As to `CC(=O)Nc1nc2ccc(-c3cccc(S(C)(=O)=O)c3)cc2s1`, the IC50 was below 1000 nM.

The compound `CC(=O)Nc1nc2ccc(-c3cccc(S(=O)(=O)NC(CO)CO)c3)cc2s1` registered an IC50 below 1000 nM.

With `CC(=O)Nc1nc2ccc(-c3cccc(S(=O)(=O)CCO)c3)cc2s1`, the IC50 was below 1000 nM.

Compound `CS(=O)(=O)c1cccc(-c2ccc3nc(NC(=O)NCCC(=O)N4CCCC4)sc3c2)c1` showed an IC50 below 1000 nM.

As for `CC(=O)Nc1nc2ccc(-c3cccc(S(=O)(=O)NCCCO)c3)cc2s1`, the half-inhibitory concentration (IC50) was below 1000 nM.

Compound `CC(=O)Nc1nc2ccc(-c3cccc(S(=O)(=O)NCCN4CCOCC4)c3)cc2s1` had an IC50 below 1000 nM.

Take `CC(=O)Nc1nc2ccc(-c3cccc(S(=O)(=O)N4CCC(O)CC4)c3)cc2s1`: the IC50 is below 1000 nM.

For the compound `CC(=O)Nc1nc2ccc(-c3ccc(Cl)c(S(=O)(=O)NCCO)c3)cc2s1`, the concentration for half-maximal inhibition (IC50) is below 1000 nM.

On to `CC(=O)Nc1nc2ccc(-c3cccc(S(=O)(=O)N4CCCC(N)C4)c3)cc2s1` (stereo unspecified), for which the IC50 is below 1000 nM.

Compound `CC(=O)Nc1nc2ccc(-c3ccc(C)c(S(C)(=O)=O)c3)cc2s1` registered an IC50 below 1000 nM.

For `COc1cc(-c2ccc3nc(NC(C)=O)sc3c2)ccc1O`, the IC50 is below 1000 nM.

In turn, `CC(=O)Nc1cn2nc(-c3cccc(S(C)(=O)=O)c3)ccc2n1` returned an IC50 below 1000 nM.

Compound `COc1cc(-c2ccc3nc(NC(C)=O)cn3n2)ccc1O` returned an IC50 below 1000 nM.

`CC(=O)Nc1nc2ccc(-c3cccc(S(=O)(=O)NCC(O)CO)c3)cc2s1` (stereo unspecified) gave an IC50 below 1000 nM.

In the case of `CC(=O)Nc1cn2nc(-c3cccc(S(=O)(=O)NCCO)c3)ccc2n1`, the IC50 was below 1000 nM.

The compound `CC(=O)Nc1nc2ccc(-c3cccc(S(=O)(=O)CCCO)c3)cc2s1` gave an IC50 below 1000 nM.

`COc1cccc(-c2ccc3nc(NC(C)=O)sc3c2)c1` had an IC50 above 20000 nM.

In turn, `COCCNS(=O)(=O)c1cccc(-c2ccc3nc(NC(C)=O)sc3c2)c1` returned an IC50 below 1000 nM.

The compound `CC(C)(C)OCCCNC(=O)Nc1nc2ccc(-c3cccc(S(C)(=O)=O)c3)cc2s1` came in with an IC50 above 20000 nM.

A further assay addresses PIK3CA (human) (UniProt P42336). The assay is described as follows: Inhibition of PIK3CA Kinase Activity.
`CC(=O)Nc1cn2cc(-c3cccc(S(C)(=O)=O)c3)ccc2n1` displayed an IC50 below 1000 nM.

Take `CC(=S)Nc1cn2nc(-c3cccc(S(C)(=O)=O)c3)ccc2n1`: the IC50 was below 1000 nM.

As for `CC(=O)Nc1nc2ccc(-c3cccc(S(=O)(=O)NC4CCCOC4)c3)cc2s1` (stereo unspecified), the IC50 is below 1000 nM.

`CC(=O)Nc1nc2ccc(-c3cc(C(F)(F)F)cc(S(=O)(=O)NCCO)c3)cc2s1` came in with an IC50 above 20000 nM.

For the compound `CS(=O)(=O)c1cccc(-c2ccc3nc(NC(=O)c4ccco4)sc3c2)c1`, the IC50 was above 20000 nM.

In turn, `CC(C)(C)OC(=O)CCNC(=O)Nc1nc2ccc(-c3cccc(S(C)(=O)=O)c3)cc2s1` came in with an IC50 above 20000 nM.

`CC(C)c1noc(CCNC(=O)Nc2nc3ccc(-c4cccc(S(=O)(=O)N(C)C)c4)cc3s2)n1` came in with an IC50 above 20000 nM.

Regarding `CN(C)S(=O)(=O)c1cccc(-c2ccc3nc(NC(=O)NCCC(=O)OC(C)(C)C)sc3c2)c1`, the IC50 is above 20000 nM.

Turning to `CC(=O)Nc1nc2ccc(-c3cccc(S(=O)(=O)N(C)CCO)c3)cc2s1`, the IC50 was below 1000 nM.

`CN(C)C(=O)CNC(=O)Nc1nc2ccc(-c3cccc(S(C)(=O)=O)c3)cc2s1` yielded a concentration for half-maximal inhibition (IC50) below 1000 nM.

`CC(=O)Nc1nc2ccc(-c3cccc(S(C)(=O)=O)n3)cc2s1` came in with a 50% inhibitory concentration (IC50) below 1000 nM.

Turning to `CC(=O)Nc1nc2ccc(-c3cccc(S(=O)(=O)N4CCOCC4)c3)cc2s1`, the 50% inhibitory concentration (IC50) was below 1000 nM.

Consider `CS(=O)(=O)c1cccc(-c2ccc3nc(NC(=O)NCC(=O)N4CCOCC4)sc3c2)c1`, for which the IC50 was below 1000 nM.

For the compound `CC(=O)Nc1nc2ccc(-c3cccc(S(=O)(=O)N(CCO)CCO)c3)cc2s1`, the IC50 was below 1000 nM.

In turn, `CC(=O)Nc1nc2ccc(-c3cncc(S(N)(=O)=O)c3)cc2s1` returned an IC50 below 1000 nM.

In the case of `COc1cc(-c2ccc3nc(NC(=O)NCC(=O)N4CCOCC4)sc3c2)ccc1O`, the IC50 is below 1000 nM.

On to `CC(=O)Nc1nc2ccc(-c3cccc(S(=O)(=O)N(C)C)c3)cc2s1`, for which the IC50 is below 1000 nM.

Compound `CC(=O)Nc1nc2ccc(-c3cccc(S(N)(=O)=O)c3)cc2s1` returned an IC50 below 1000 nM.

As to `CC(=O)Nc1nc2ccc(-c3cccc(NS(C)(=O)=O)c3)cc2s1`, the IC50 was below 1000 nM.

`CC(=O)Nc1nc2ccc(-c3cccc(S(=O)(=O)N4CCCC(O)C4)c3)cc2s1` (stereo unspecified): the IC50 was below 1000 nM.

`CC(=O)Nc1nc2ccc(-c3cccc(S(=O)(=O)NC4CCCNC4)c3)cc2s1` (stereo unspecified) displayed an IC50 below 1000 nM.

The compound `CC(=O)Nc1nc2ccc(-c3cccc(S(=O)(=O)N4CCN(C)C(=O)C4)c3)cc2s1` returned an IC50 below 1000 nM.

In the case of `CCNS(=O)(=O)c1cccc(-c2ccc3nc(NC(C)=O)sc3c2)c1`, the IC50 was below 1000 nM.

`CC(=O)Nc1nc2ccc(-c3cccc(S(C)(=O)=O)c3)cc2s1` returned an IC50 below 1000 nM.

In the case of `CC(=O)Nc1nc2ccc(-c3cccc(S(=O)(=O)NC(CO)CO)c3)cc2s1`, the IC50 is below 1000 nM.

On to `CC(=O)Nc1nc2ccc(-c3cccc(S(=O)(=O)NCCCO)c3)cc2s1`, for which the IC50 is below 1000 nM.

In the case of `CC(=O)Nc1nc2ccc(-c3cccc(S(=O)(=O)N4CCCC(NC(=O)OC(C)(C)C)C4)c3)cc2s1` (stereo unspecified), the half-maximal inhibitory concentration (IC50) is below 1000 nM.

`CC(=O)Nc1nc2ccc(-c3cccc(S(=O)(=O)NCCN4CCOCC4)c3)cc2s1`: the 50% inhibitory concentration (IC50) is below 1000 nM.

Take `CC(=O)Nc1nc2ccc(-c3cccc(S(=O)(=O)N4CCC(O)CC4)c3)cc2s1`: the IC50 was below 1000 nM.

For `CC(=O)Nc1nc2ccc(-c3ccc(Cl)c(S(=O)(=O)NCCO)c3)cc2s1`, the IC50 is below 1000 nM.

For `CC(=O)Nc1nc2ccc(-c3cccc(S(=O)(=O)N4CCCC(N)C4)c3)cc2s1` (stereo unspecified), the IC50 is below 1000 nM.

As for `COc1cc(-c2ccc3nc(NC(C)=O)sc3c2)ccc1O`, the IC50 was below 1000 nM.

`CC(=O)Nc1cn2nc(-c3cccc(S(C)(=O)=O)c3)ccc2n1`: the IC50 is below 1000 nM.

Regarding `COc1cc(-c2ccc3nc(NC(C)=O)cn3n2)ccc1O`, the IC50 was below 1000 nM.

As to `CC(=O)Nc1nc2ccc(-c3cccc(S(=O)(=O)NC4CCCN(C(=O)OC(C)(C)C)C4)c3)cc2s1` (stereo unspecified), the IC50 was below 1000 nM.

In turn, `CC(=O)Nc1nc2ccc(-c3cccc(S(=O)(=O)NCC(O)CO)c3)cc2s1` (stereo unspecified) came in with an IC50 below 1000 nM.

In the case of `CC(=O)Nc1cn2nc(-c3cccc(S(=O)(=O)NCCO)c3)ccc2n1`, the 50% inhibitory concentration (IC50) is below 1000 nM.

`CC(=O)Nc1nc2ccc(-c3cccc(S(=O)(=O)CCCO)c3)cc2s1` yielded an IC50 below 1000 nM.

Compound `COCCNS(=O)(=O)c1cccc(-c2ccc3nc(NC(C)=O)sc3c2)c1` showed an IC50 below 1000 nM.

`CC(C)(C)OCCCNC(=O)Nc1nc2ccc(-c3cccc(S(C)(=O)=O)c3)cc2s1` gave an IC50 above 20000 nM.
